Source: patent US7767674B2, “Kinase inhibitors” (Eli Lilly and Company, priority 2004, dated 2010)

Tests used:
[1] = target: p38 kinase enzyme (Homo sapiens, UniProt Q16539); experiment: Inhibition of p38 kinase (33P-ATP, EGF peptide 661-681 substrate); type: biochemical; conditions: 33P-ATP assay, 40 min at 30° C.
Procedure: The kinase buffer solution is prepared by combining 2.5 mL 1M Tris-HCl (pH 7.5), 0.1 mL 1M dithiothreitol, 1.0 mL 1M magnesium chloride, and 300 μL 1% Triton X-100 and diluting to 100 mL with water. 84 mL of this kinase buffer solution is combined with 16 mL DMSO to prepare the 16% DMSO solution.
The 200 μM ATP solution is prepared by adding 102.6 μL 10 mM aqueous ATP, 25 μL ^33P-ATP, and 163.5 μL of 4 mM aqueous Epidermal Growth Factor Peptide 661-681 (Biomol, Catalog #P-121) in 5 mL kinase buffer solution.
The p38 kinase enzyme solution is prepared by dissolving 9.5 μL concentrated enzyme solution (250 ng p38 enzyme/μL kinase buffer solution) in 1536 μL kinase buffer solution.
An 80 μM solution of each test compound and control compound are prepared by dissolving 2 μL of a 10 mM stock solution of the respective compounds in dimethylsulfoxide in 248 μL of the 16% DMSO solution in a Costar 96-well microtiter plate. The plate is placed onto the Tecan Genesis automated liquid handler for 1:3 serial dilutions.
10 μL of serially diluted compound is placed with a Beckman Multimek 96-well automated liquid handler to the assay plate. 20 μL of 200 μM ATP solution is added with a Titertek Multidrop 8-channel liquid handler. 10 μL of p38 kinase enzyme solution is transferred to the assay plate using the Multimek. The mixture is allowed to react for 40 min at 30° C. and then the reaction is stopped by adding 60 μL of freshly prepared 5% glacial AcOH with Multidrop. 80 μL of this solution is transferred to an “MAPH” plate using the Multimek. The plates are allowed to set for 30 min at room temperature and then washed/aspirated on the Titertek MAP extractor with freshly prepared 0.5% glacial AcOH (1×300 μL, 2×200 μL). […] The plates are allowed to sit for 30 min and counted on a PE/Wallac Microbeta Trilux scintillation counter for ^33P-isotope.
All exemplified compounds are initially tested at 10 concentrations (20 μM-1 nM using 1:3 serial dilutions). […] IC50 values are calculated (IDBS ActivityBase software) for each compound using non-linear regression. […]

[2] = system: TNF-α in synovial lavage fluid; experiment: Effect on intra-articular LPS induced TNF-α, rat ankle synovial lavage fluid; type: in vivo; conditions: oral, female Lewis rats, intra-articular LPS 10 μg one hour after compound, lavage after two hours, read-out: ED50, inhibition of TNF-α synthesis in synovial lavage fluid
Procedure: Intra-articular injection of LPS into rat ankles induces the synthesis of TNF-α, which can be measured in synovial lavage fluid. High levels of TNF-α are detectable within 2 hours. Since the joint is the site where arthritis develops, this model can rapidly determine whether an orally administered compound has an effect on an inflammatory response in the synovium.
Six female Lewis rats (150-200 g) are place in each treatment group. The animals are given vehicle (1% NaCarboxymethylcellulose-0.25% Tween 80) or test compound (1 mg/kg, 3 mg/kg, 10 mg/kg, and 30 mg/kg) orally. One hour later, 10 μl LPS (10 μg) is administered intra-articularly into the right ankle of each rat, while the left ankle receives 10 μL of saline. After two hours, each ankle is lavaged with 100 μL of saline. The lavage is collected and stored at −80° C.
TNF-α is measured with a commercially available ELISA kit (R&D, RTA00). Treatment with Example 100 produced a dose response inhibition of TNF-α synthesis, as measured in the synovial lavage fluid with ED50=30 mg/kg.

[3] = system: TNFa-levels in the plasma; experiment: Inhibition of TNF in vivo, LPS-challenged mice, plasma TNFa by ELISA; conditions: p.o., female Balb/c mice, LPS IP 400 ug/kg 1 hr after compound, plasma 1.5 hrs after LPS
Procedure: Compounds are administered p.o. (30, 10, 3 and 1 mg/kg) to female Balb/c mice (6 mice/dose). 1 hr following compound administration at 4 doses (P.O. at volume of 0.1 mL/mouse; vehicle: 1% NaCMC/0.25% Tween-80 in water); mice are given an IP-injection of LPS at 400 ug/kg. 1.5 hrs after LPS challenging, mice are anesthetized with isoflurane and blood is taken via cardiac puncture. TNFa-levels in the plasma are determined using ELISA kit from R&D Systems and dose response ED50 is determined.

[4] = system: TNF-α production in mouse peritoneal macrophages; experiment: Inhibition of TNF-α in vitro, LPS/interferon-γ stimulated mouse peritoneal macrophages, Luminex detection; type: cell-based; conditions: Peritoneal macrophage, LPS 50 ng/mL + interferon-γ 10 U/mL, 18 hr, read-out: IC50, suppression of TNF-α in vitro
Procedure: 1 mL thioglycolate broth (5.0 g yeast extract, 15.0 g casitone or trypticase, 5.0 g dextrose, 2.5 g sodium chloride, 0.75 g L-cystine, 0.5 g sodium thioglycolate, 1.0 mg resazurin, and 0.75 g agar in 1.0 L distilled water) are injected into the peritoneal cavity of Balb/C female mice. At day 4 or 5 post-injection the mice are sacrificed and then injected i.p. with 4 mL RPMI-1640 medium (BioWhittaker) and the peritoneal macrophages are withdrawn by syringe. Mouse peritoneal microphages are counted with a hemocytometer and adjusted to 5×10^5 cells/well in 96-well plates in RPMI-1640 medium with 10% fetal bovine serum. 200 μL/well is plated in 96-well plates and the cells allowed to settle and adhere to the bottom of the well for at least 3 hr. The test compound or standard p38 kinase inhibitor is pre-treated using a series of 8 concentrations for 1 hr at 37° C. (20 μL/well). The cells are treated with a mixture of 50 ng/mL lipopolysaccharide (LPS) and 10 U/mL interferon-γ for 18 hr at 37° C. (20 μL/well). The conditioned media is harvested and assayed for TNF-α production using the Luminex procedure. […] Standards and samples are read on a Luminex machine. These intensity readings are then converted to picogram/milliliter units based on a 12-point standard curve created in duplicate using a four-parameter logistic regression method (Bio-Plex Manager 2.0, Bio-Rad), and the IC50 calculated.

p38 kinase enzyme, sequence (Q16539 whole entry): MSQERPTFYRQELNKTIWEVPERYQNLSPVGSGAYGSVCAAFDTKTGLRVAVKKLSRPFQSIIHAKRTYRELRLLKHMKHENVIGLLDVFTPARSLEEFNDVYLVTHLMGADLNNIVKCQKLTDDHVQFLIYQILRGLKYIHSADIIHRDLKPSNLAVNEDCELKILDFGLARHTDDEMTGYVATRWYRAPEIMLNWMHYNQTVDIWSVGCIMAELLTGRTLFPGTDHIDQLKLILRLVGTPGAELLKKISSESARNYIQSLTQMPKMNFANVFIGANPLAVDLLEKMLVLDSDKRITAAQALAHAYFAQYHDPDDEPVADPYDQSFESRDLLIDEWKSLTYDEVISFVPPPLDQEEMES

SMILES | IC50 [1] [nM] | ED50 [2] [mg/kg] | TMED50, suppression of TNF in vivo [3] [mg/kg] | IC50 [4] [nM]
Cn1nc(C(C)(C)C)cc1NC(=O)Nc1cc(F)cc(OC2CCN(C(=O)C(C)(C)C)CC2)c1 [Example 70, 1-(5-tert-Butyl-2-methyl-2H-pyrazol-3-yl)-3-{3-[1-(2,2-dimethyl-propionyl)-piperidin-4-yloxy]-5-fluoro-phenyl}-urea] | 19 |  |  | 
Cn1nc(C(C)(C)C)cc1NC(=O)Nc1ccc(CN2CCN(C(=O)c3c(F)cccc3F)CC2)cc1 [Example 100] | 10 | 30 | 2.4 | 11
Cc1ccc(-n2nc(C(C)(C)C)cc2NC(=O)Nc2ccc(N3CCN(C(=O)C(C)(C)C)CC3)cc2)cc1 [Example 136] | 91 |  |  | 
